Results from patent US20250059174A1, “Pharmaceutical Compounds and Compositions as C-Kit Kinase Inhibitors” (Enanta Pharmaceuticals, Inc., priority 2023, published 2025).

Assays:
[1] = target: Recombinant human c-KIT kinase (Homo sapiens (Human), UniProt P10721); experiment: c-KIT kinase chemiluminescence assay (ADP-Glo); format: biochemical; details: ATP 50 μM
Method in brief: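 Recombinant human c-KIT preincubated 30 min at RT in 40 mM Tris pH 7.5, 20 mM MgCl2, 0.1 mg/mL BSA, 50 μM DTT, then reacted 2 h at RT with ATP and polyEY substrate. ADP-Glo luminescence readout; activity normalized to high/low controls, IC50 and Hill coefficient from inhibitor-versus-normalized-response fit.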

[2] = tested on: M-07e cells; experiment: M-07e cellular assay (SCF-mediated cell proliferation); format: cell-based; details: Homo sapiens, 72 hours, CellTiter Glo
Protocol: M-07e cells (Creative Bioarray, CSC-C0249) which endogenously express human c-KIT were used to evaluate the effect of compounds on stem cell factor (SCF)-mediated cell proliferation. M-07e cells were cultured in growth media (RPMI+10% FBS+1% penicillin/streptomycin+10 ng/mL GM-CSF) at 5E5-1.5E6 cells/mL, replenishing media every 3-4 days. 1.5E4 cells were seeded per well in 384 well tissue culture treated plates in 20 μL assay media (RPMI+[…]+1% penicillin/streptomycin) without growth factor stimulation and incubated at 37° C. in a CO2 humidity-controlled incubator. Twenty-four hours later, three-fold serially diluted test compounds in media containing SCF (at the previously determined EC90) were added to the plated M-07e cells and incubated for an additional 72 hours. Cell viability was determined by adding 25 μL CellTiter Glo (Promega) to the cells and the luminescence was measured using a Perkin Elmer Envision plate reader. The EC50 was determined using GraphPad Prism. Percent cell growth was determined after normalizing the curve to the mean RLU high control (no compound control wells) at 100% and the mean RLU low control (no SCF control wells) at 0%.

Sequence of Recombinant human c-KIT kinase (P10721 26-976): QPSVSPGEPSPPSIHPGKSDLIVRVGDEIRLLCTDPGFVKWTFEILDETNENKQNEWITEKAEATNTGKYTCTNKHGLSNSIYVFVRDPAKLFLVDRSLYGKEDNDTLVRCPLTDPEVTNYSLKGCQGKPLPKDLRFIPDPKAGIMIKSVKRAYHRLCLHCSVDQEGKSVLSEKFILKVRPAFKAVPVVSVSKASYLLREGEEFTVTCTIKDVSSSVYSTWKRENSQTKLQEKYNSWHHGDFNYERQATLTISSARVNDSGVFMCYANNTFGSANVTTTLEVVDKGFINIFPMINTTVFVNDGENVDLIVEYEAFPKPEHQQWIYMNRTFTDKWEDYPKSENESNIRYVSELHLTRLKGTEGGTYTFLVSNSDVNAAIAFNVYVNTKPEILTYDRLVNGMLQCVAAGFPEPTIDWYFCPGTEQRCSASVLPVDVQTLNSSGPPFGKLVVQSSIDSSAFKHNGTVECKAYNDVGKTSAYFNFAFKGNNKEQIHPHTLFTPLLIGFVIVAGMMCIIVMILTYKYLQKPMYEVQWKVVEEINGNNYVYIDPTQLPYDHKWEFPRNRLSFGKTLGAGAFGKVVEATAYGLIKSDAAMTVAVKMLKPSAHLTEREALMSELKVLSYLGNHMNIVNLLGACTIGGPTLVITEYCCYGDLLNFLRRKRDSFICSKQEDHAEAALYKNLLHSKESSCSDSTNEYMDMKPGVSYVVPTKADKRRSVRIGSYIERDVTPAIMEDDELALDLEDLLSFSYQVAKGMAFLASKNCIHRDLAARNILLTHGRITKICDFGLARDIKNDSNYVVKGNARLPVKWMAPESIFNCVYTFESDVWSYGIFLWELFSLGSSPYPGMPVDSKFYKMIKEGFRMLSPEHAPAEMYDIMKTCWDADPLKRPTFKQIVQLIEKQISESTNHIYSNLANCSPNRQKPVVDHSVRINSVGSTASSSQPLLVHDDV

SMILES | IC50 [1] | EC50 [2]
Cc1ccc(-c2noc([C@H]3C[C@@H]3F)n2)cc1NC(=O)c1cnn2cc(-c3cn(C[C@H](C)O)nn3)ccc12 [Example 117] | < 100 nM | < 100 nM
Cc1ccc(-c2noc([C@H]3C[C@@H]3F)n2)cc1NC(=O)c1cnn2cc(-c3cn(CC(C)(C)O)nn3)ccc12 [Example 118] | < 100 nM | < 100 nM
Cc1ccc(-c2noc([C@H]3C[C@@H]3F)n2)cc1NC(=O)c1cnn2cc(-c3cn(CC4(C)COC4)nn3)ccc12 [Example 119] | < 100 nM | < 100 nM
Cc1ccc(-c2noc([C@H]3C[C@@H]3F)n2)cc1NC(=O)c1cnn2cc(-c3cnnn3CCO)ccc12 [Example 120] | 100 to 1000 nM | 100 to 1000 nM
Cc1ccc(-c2noc([C@H]3C[C@@H]3F)n2)cc1NC(=O)c1cnn2cc(-c3cnnn3CC(F)(F)F)ccc12 [Example 121] | > 1000 nM | > 1000 nM
Cc1ccc(-c2noc([C@H]3C[C@@H]3F)n2)cc1NC(=O)c1cnn2ccc(-c3cn(CC(C)(C)O)nn3)cc12 [Example 122] | < 100 nM | < 100 nM
Cc1ccc(-c2noc([C@H]3C[C@@H]3F)n2)cc1NC(=O)c1cnn2cc(-c3cn(C45CC(C4)C5)nn3)ccc12 [Example 123] | 100 to 1000 nM | < 100 nM
Cc1ccc(-c2noc([C@H]3C[C@@H]3F)n2)cc1NC(=O)c1cnn2ccc(-c3cn(C45CC(F)(C4)C5)nn3)cc12 [Example 124] | < 100 nM | < 100 nM
Cc1ccc(-c2noc([C@H]3C[C@@H]3F)n2)cc1NC(=O)c1cnn2cc(-c3cn(C45CC(F)(C4)C5)nn3)ccc12 [Example 125] | 100 to 1000 nM | < 100 nM
Cc1ccc(-c2noc([C@H]3C[C@@H]3F)n2)cc1NC(=O)c1cnn2ccc(-c3cn(C45CC(C(F)(F)F)(C4)C5)nn3)cc12 [Example 126] | < 100 nM | < 100 nM
Cc1ccc(-c2noc([C@H]3C[C@@H]3F)n2)cc1NC(=O)c1cnn2ccc(C#N)cc12 [Example 127] | 100 to 1000 nM | 100 to 1000 nM
Cc1ccc(-c2noc([C@H]3C[C@@H]3F)n2)cc1NC(=O)c1cnn2cc(C#N)ccc12 [Example 128] | > 1000 nM | 100 to 1000 nM
Cc1ccc(-c2noc([C@H]3C[C@@H]3F)n2)cc1NC(=O)c1cnn2ccc(-c3nn[nH]n3)cc12 [Example 129] | 100 to 1000 nM | > 1000 nM
Cc1ccc(-c2noc([C@H]3C[C@@H]3F)n2)cc1NC(=O)c1cnn2cc(-c3nn[nH]n3)ccc12 [Example 130] | 100 to 1000 nM | > 1000 nM
Cc1ccc(-c2noc([C@H]3C[C@@H]3F)n2)cc1NC(=O)c1cnn2ccc(-c3nnn(C)n3)cc12 [Example 131] | 100 to 1000 nM | < 100 nM
CC#Cc1ccc2c(C(=O)Nc3cc(-c4noc([C@H]5C[C@@H]5F)n4)ccc3C)cnn2c1 [Example 132-1] | < 100 nM | 100 to 1000 nM
CC#Cc1ccc2c(C(=O)Nc3cc(-c4noc([C@H]5C[C@@H]5F)n4)c(F)cc3C)cnn2c1 [Example 132-2] | 100 to 1000 nM | 100 to 1000 nM
Cc1ccc(-c2noc([C@H]3C[C@@H](OC(F)F)C3)n2)cc1NC(=O)c1cnn2cc(-c3cn(C(F)(F)C(=O)O)nn3)ccc12 [Example 132-3] | < 100 nM | > 1000 nM
Cc1ccc(-c2noc([C@H]3C[C@@H]3F)n2)cc1NC(=O)c1cnn2cc(-c3cn(C(F)(F)C(=O)O)nn3)ccc12 [Example 132-4] | < 100 nM | > 1000 nM
Cc1ncc(-c2noc([C@H]3C[C@@H]3F)n2)cc1NC(=O)c1cnn2cc(-c3cn(C(F)F)nn3)ccc12 [Example 132-5] | 100 to 1000 nM | < 100 nM
Cc1ncc(-c2noc([C@H]3C[C@@H](OC(F)(F)F)C3)n2)cc1NC(=O)c1cnn2cc(-c3cn(C(F)F)nn3)ccc12 [Example 132-6] | 100 to 1000 nM | < 100 nM
Cc1ncc(-c2noc(C3CC(F)(F)C3)n2)cc1NC(=O)c1cnn2cc(-c3cn(C(F)F)nn3)ccc12 [Example 132-7] | 100 to 1000 nM | 100 to 1000 nM

SMILES | IC50 [1] | EC50 [2]
Cc1ncc(-c2noc([C@H]3C[C@@H](C(F)(F)F)C3)n2)cc1NC(=O)c1cnn2cc(-c3cn(C(F)F)nn3)ccc12 [Example 132-8] | < 100 nM | < 100 nM
Cc1ncc(-c2noc([C@H]3C[C@@H](OC(F)(F)F)C3)n2)cc1NC(=O)c1cnn2cc(-c3cn(CCO)nn3)ccc12 [Example 132-9] | < 100 nM | < 100 nM
Cc1ncc(-c2noc([C@H]3C[C@@H](OC(F)(F)F)C3)n2)cc1NC(=O)c1cnn2cc(-c3cn(CC(C)(C)O)nn3)ccc12 [Example 132-10] | 100 to 1000 nM | < 100 nM
Cc1ncc(-c2noc([C@H]3C[C@@H](OC(F)(F)F)C3)n2)cc1NC(=O)c1cnn2cc(-c3cn(CC4(C)COC4)nn3)ccc12 [Example 132-12] | < 100 nM | < 100 nM
Cc1ccc(-c2ncc(C3CC3)cn2)cc1NC(=O)c1cnn2cc(-c3cn(C(F)F)nn3)ccc12 [Example 132-13] | < 100 nM | < 100 nM
Cc1ccc(-c2ncc(C3CC3)cn2)cc1NC(=O)c1cnn2cc(-c3cn(CC(C)(C)O)nn3)ccc12 [Example 132-14] | < 100 nM | < 100 nM
COC(=O)N1CC(c2nc(-c3ccc(C)c(NC(=O)c4cnn5cc(-c6cn(C(F)F)nn6)ccc45)c3)no2)C1 [Example 132-15] | < 100 nM | < 100 nM
COC(=O)N1CC(c2nc(-c3cnc(C)c(NC(=O)c4cnn5cc(-c6cn(C(F)F)nn6)ccc45)c3)no2)C1 [Example 132-16] | 100 to 1000 nM | 100 to 1000 nM
COC(=O)N1CC(c2nc(-c3ccc(Cl)c(NC(=O)c4cnn5cc(-c6cn(C(F)F)nn6)ccc45)c3)no2)C1 [Example 132-17] | < 100 nM | < 100 nM
Cc1ccc(-c2noc([C@H]3C[C@@H]3F)n2)cc1NC(=O)c1cnn2ccc(-c3nnn(CC(C)(C)O)n3)cc12 [Example 132] | < 100 nM | < 100 nM
Cc1ccc(-c2noc([C@H]3C[C@@H]3F)n2)cc1NC(=O)c1cnn2ccc(-c3ccn(C(F)F)n3)cc12 [Example 135] | < 100 nM | 100 to 1000 nM
Cc1ccc(-c2noc([C@H]3C[C@@H]3F)n2)cc1NC(=O)c1cnn2ccc(-c3cnn(C4COC4)c3)cc12 [Example 136] | < 100 nM | < 100 nM
Cc1ccc(-c2noc([C@H]3C[C@@H]3F)n2)cc1NC(=O)c1cnn2ccc(-c3cnn(CCO)c3)cc12 [Example 138] | < 100 nM | < 100 nM
Cc1ccc(-c2noc([C@H]3C[C@@H]3F)n2)cc1NC(=O)c1cnn2ccc(-c3cnn(C(C)(C)CO)c3)cc12 [Example 140] | < 100 nM | < 100 nM
Cc1ccc(-c2noc([C@H]3C[C@@H]3F)n2)cc1NC(=O)c1cnn2ccc(-c3cnn(CC(C)(C)O)c3)cc12 [Example 142] | < 100 nM | < 100 nM
Cc1ccc(-c2noc([C@H]3C[C@@H]3F)n2)cc1NC(=O)c1cnn2cc(-c3c(C)nn(CC(C)(C)O)c3C)ccc12 [Example 144] | < 100 nM | < 100 nM
Cc1ccc(-c2noc([C@H]3C[C@@H]3F)n2)cc1NC(=O)c1cnn2ccc(-c3c(C)nn(C4COC4)c3C)cc12 [Example 145] | < 100 nM | < 100 nM
COCCn1nc(C)c(-c2ccn3ncc(C(=O)Nc4cc(-c5noc([C@H]6C[C@@H]6F)n5)ccc4C)c3c2)c1C [Example 146] | < 100 nM | < 100 nM
Cc1ccc(-c2noc([C@H]3C[C@@H]3F)n2)cc1NC(=O)c1cnn2ccc(-c3ccc(F)cc3)cc12 [Example 148] | 100 to 1000 nM | 100 to 1000 nM
Cc1ccc(-c2noc([C@H]3C[C@@H]3F)n2)cc1NC(=O)c1cnn2cc(-c3ccc(F)cc3)ccc12 [Example 149] | < 100 nM | < 100 nM
Cc1ccc(-c2noc([C@H]3C[C@@H]3F)n2)cc1NC(=O)c1cnn2ccc(-c3cccnc3)cc12 [Example 150] | < 100 nM | < 100 nM
